Data on six molecules can be found in ChEMBL document CHEMBL2074101, “Cloning and characterization of a rat H+/peptide cotransporter mediating absorption of beta-lactam antibiotics in the intestine and kidney” (J Pharmacol Exp Ther, 1995).

Type in all cases: functional, cell-based
Common to all, as to settings: Oocyte

The target of series [1] is T1, Solute carrier family 15 member 1 (Rattus norvegicus) (UniProt P51574).
T1 sequence (whole entry): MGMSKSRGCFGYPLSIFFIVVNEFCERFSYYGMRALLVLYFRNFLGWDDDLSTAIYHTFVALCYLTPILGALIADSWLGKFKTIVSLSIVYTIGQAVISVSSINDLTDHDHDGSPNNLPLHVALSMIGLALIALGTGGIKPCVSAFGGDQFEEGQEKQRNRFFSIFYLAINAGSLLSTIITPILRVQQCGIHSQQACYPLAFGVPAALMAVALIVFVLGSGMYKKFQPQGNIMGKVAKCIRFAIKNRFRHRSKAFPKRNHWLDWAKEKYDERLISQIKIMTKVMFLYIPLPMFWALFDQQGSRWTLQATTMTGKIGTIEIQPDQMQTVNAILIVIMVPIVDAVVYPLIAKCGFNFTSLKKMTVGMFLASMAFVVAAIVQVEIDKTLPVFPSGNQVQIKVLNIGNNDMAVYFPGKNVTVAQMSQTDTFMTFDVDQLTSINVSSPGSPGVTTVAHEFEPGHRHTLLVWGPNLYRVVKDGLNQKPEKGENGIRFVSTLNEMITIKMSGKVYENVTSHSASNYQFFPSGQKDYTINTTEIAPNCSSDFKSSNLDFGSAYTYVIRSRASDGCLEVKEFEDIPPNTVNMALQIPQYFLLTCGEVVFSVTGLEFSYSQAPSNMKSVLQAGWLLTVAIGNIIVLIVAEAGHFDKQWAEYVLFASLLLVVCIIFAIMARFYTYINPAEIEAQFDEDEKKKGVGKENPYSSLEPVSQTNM
The series is described as follows: TP_TRANSPORTER: inhibition of Cephradine uptake (Cephradine: 3000 uM, Gly-Leu: 10000 uM) in Xenopus laevis oocytes.

Series [2] deals with T1, Solute carrier family 15 member 1 (Rattus norvegicus). Kind of series: TP_TRANSPORTER: inhibition of Ceftibuten uptake (Ceftibuten: 1000 uM, Gly-Leu: 10000 uM) in Xenopus laevis oocytes.
Series [3] shares this target. Kind of series: TP_TRANSPORTER: inhibition of Cephradine uptake (Cephradine: 3000 uM, Bestatin: 10000 uM) in Xenopus laevis oocytes.
Series [4] has the same target. Kind of series: TP_TRANSPORTER: inhibition of Ceftibuten uptake (Ceftibuten: 1000 uM, Bestatin: 10000 uM) in Xenopus laevis oocytes.
For series [5] the target is unchanged. Kind of series: TP_TRANSPORTER: inhibition of Ceftibuten uptake (Ceftibuten: 1000 uM, Carnosine: 10000 uM) in Xenopus laevis oocytes.
Series [6] shares this target. The series is described as follows: TP_TRANSPORTER: inhibition of Cephradine uptake (Cephradine: 3000 uM, Carnosine: 10000 uM) in Xenopus laevis oocytes.
For series [7] the target is unchanged. The series is described as follows: TP_TRANSPORTER: inhibition of Ceftibuten uptake (Ceftibuten: 1000 uM, Cephradine: 10000 uM) in Xenopus laevis oocytes.
Series [8] shares this target. The series is described as follows: TP_TRANSPORTER: inhibition of Cephradine uptake (Cephradine: 3000 uM, Ceftibuten: 10000 uM) in Xenopus laevis oocytes.
Substrate in series [9]: CC1=C(C(=O)O)N2C(=O)[C@@H](NC(=O)[C@H](N)C3=CCC=CC3)[C@H]2SC1
The series is described as follows: (§1) TP_TRANSPORTER: uptake in Xenopus laevis oocytes.

Substrate in series [10]: Nc1nc(/C(=C/CC(=O)O)C(=O)N[C@@H]2C(=O)N3C(C(=O)O)=CCS[C@H]23)cs1
The description is as §1.

As for `CC(C)C[C@H](NC(=O)CN)C(=O)O`, the Activity result in [1] and in series [2] was “inhibitor [+]” each time. Turning to `CC(C)C[C@H](NC(=O)[C@@H](O)[C@H](N)Cc1ccccc1)C(=O)O`, the Activity entry in series [3] and in [4] was “inhibitor [+]” throughout.

`NCCC(=O)N[C@@H](Cc1c[nH]cn1)C(=O)O`: the Activity entry in [5] and in series [6] was “inhibitor [+]” in each case. Turning to `CC1=C(C(=O)O)N2C(=O)[C@@H](NC(=O)[C@H](N)C3=CCC=CC3)[C@H]2SC1`, the Activity entry in series [7] was “is not an inhibitor [-]”. In the case of `Nc1nc(/C(=C/CC(=O)O)C(=O)N[C@@H]2C(=O)N3C(C(=O)O)=CCS[C@H]23)cs1`, the Activity entry in series [8] was “inhibitor [+]”.

B1: Solute carrier family 15 member 1 (Rattus norvegicus), P51574 (protein)
chain: MGMSKSRGCFGYPLSIFFIVVNEFCERFSYYGMRALLVLYFRNFLGWDDDLSTAIYHTFVALCYLTPILGALIADSWLGKFKTIVSLSIVYTIGQAVISVSSINDLTDHDHDGSPNNLPLHVALSMIGLALIALGTGGIKPCVSAFGGDQFEEGQEKQRNRFFSIFYLAINAGSLLSTIITPILRVQQCGIHSQQACYPLAFGVPAALMAVALIVFVLGSGMYKKFQPQGNIMGKVAKCIRFAIKNRFRHRSKAFPKRNHWLDWAKEKYDERLISQIKIMTKVMFLYIPLPMFWALFDQQGSRWTLQATTMTGKIGTIEIQPDQMQTVNAILIVIMVPIVDAVVYPLIAKCGFNFTSLKKMTVGMFLASMAFVVAAIVQVEIDKTLPVFPSGNQVQIKVLNIGNNDMAVYFPGKNVTVAQMSQTDTFMTFDVDQLTSINVSSPGSPGVTTVAHEFEPGHRHTLLVWGPNLYRVVKDGLNQKPEKGENGIRFVSTLNEMITIKMSGKVYENVTSHSASNYQFFPSGQKDYTINTTEIAPNCSSDFKSSNLDFGSAYTYVIRSRASDGCLEVKEFEDIPPNTVNMALQIPQYFLLTCGEVVFSVTGLEFSYSQAPSNMKSVLQAGWLLTVAIGNIIVLIVAEAGHFDKQWAEYVLFASLLLVVCIIFAIMARFYTYINPAEIEAQFDEDEKKKGVGKENPYSSLEPVSQTNM
Turning to B1, the Km (usually the substrate concentration at which the rate is half of its maximum) in series [9] worked out at 12.4 mM; in series [10], 0.9 mM.
